For one assay, the system named is Balb/c splenic B cells. Description: B cell activation and proliferation assay (Alamar Blue). The conditions noted are these: Mus musculus. It is filed as cell-based. Here is the method: The ability of one or more subject compounds to inhibit B cell activation and proliferation is determined according to standard procedures known in the art. For example, an in vitro cellular proliferation assay is established that measures the metabolic activity of live cells. The assay is performed in a 96 well microtiter plate using Alamar Blue reduction. Balb/c splenic B cells are purified over a Ficoll-Paque™ PLUS gradient followed by magnetic cell separation using a MACS B cell Isolation Kit (Miletenyi). Cells are plated in 90 μl at 50,000 cells/well in B Cell Media (RPMI+10% FBS+Penn/Strep+50 μM bME+5 mM HEPES). A compound provided herein is diluted in B Cell Media and added in a 10 μl volume. Plates are incubated for 30 min at 37° C. and 5% CO2 (0.2% DMSO final concentration). A 50 μl B cell stimulation cocktail is then added containing either 10 μg/ml LPS or 5 μg/ml F(ab′)2 Donkey anti-mouse […] plus 2 ng/ml recombinant mouse IL4 in B Cell Media. Plates are incubated for 72 hours at 37° C. and 5% CO2. A volume of 15 μL of Alamar Blue reagent is added to each well and plates are incubated for 5 hours at 37° C. and 5% CO2. Alamar Blue fluoresce is read at 560Ex/590Em, and IC50 or EC50 values are calculated using GraphPad Prism 5.

In the next assay the target is PI3Kβ. The assay can be described thus: PI3 Kinase HTRF assay, PI3Kβ. Format: biochemical, human. The note with it: 10 μM PIP2, 10 μM ATP, read-out: PI3K β IC50. The source says:
A PI3-Kinase HTRF® assay kit (cat No. 33-016) purchased from Millipore Corporation was used to screen compounds provided herein. This assay used specific, high affinity binding of the GRP1 pleckstrin homology (PH) domain to PIP3, the product of a Class 1A or 1B PI3 Kinase acting on its physiological substrate PIP2. During the detection phase of the assay, a complex was generated between the GST-tagged PH domain and biotinylated short chain PIP3. The biotinylated PIP3 and the GST-tagged PH domain recruited fluorophores (Streptavidin-Allophycocyanin and Europium-labeled anti-GST respectively) to form the fluorescence resonance energy transfer (FRET) architecture, generating a stable time-resolved FRET signal. The FRET complex was disrupted in a competitive manner by non-biotinylated PIP3, a product formed in the PI3 Kinase assay.
PI3 Kinase α, β, γ and δ activity was assayed using the PI3 Kinase HTRF® assay kit (catalogue No. 33-016) purchased from Millipore Corporation. […] Purified recombinant PI3K enzyme was used to catalyze the phosphorylation of phosphatidylinositol 4,5-bisphosphate (PIP2 at 10 μM) to phosphatidylinositol 3,4,5-trisphosphate (PIP3) in the presence of 10 μM ATP. The assay was carried out in 384-well format and detected using a Perkin Elmer EnVision Xcite Multilabel Reader. Emission ratios were converted into percent inhibitions and imported into GraphPad Prism software. […] IC50 values were determined using a nonlinear regression model available in GraphPad Prism 5. […]
(In general: In TR-FRET formats the signal depends on donor and acceptor labels being close together.)

[1] abbreviates: 'Greater than 10 μM' and 'Greater than 1 μM to 10 μM'.

Read-outs that look alike come from different tables or passages of the source. A value given as a limit tells only on which side of the number the result lay.

Chain of PI3Kβ (Q8BTI9 whole entry, the tested form may be a part): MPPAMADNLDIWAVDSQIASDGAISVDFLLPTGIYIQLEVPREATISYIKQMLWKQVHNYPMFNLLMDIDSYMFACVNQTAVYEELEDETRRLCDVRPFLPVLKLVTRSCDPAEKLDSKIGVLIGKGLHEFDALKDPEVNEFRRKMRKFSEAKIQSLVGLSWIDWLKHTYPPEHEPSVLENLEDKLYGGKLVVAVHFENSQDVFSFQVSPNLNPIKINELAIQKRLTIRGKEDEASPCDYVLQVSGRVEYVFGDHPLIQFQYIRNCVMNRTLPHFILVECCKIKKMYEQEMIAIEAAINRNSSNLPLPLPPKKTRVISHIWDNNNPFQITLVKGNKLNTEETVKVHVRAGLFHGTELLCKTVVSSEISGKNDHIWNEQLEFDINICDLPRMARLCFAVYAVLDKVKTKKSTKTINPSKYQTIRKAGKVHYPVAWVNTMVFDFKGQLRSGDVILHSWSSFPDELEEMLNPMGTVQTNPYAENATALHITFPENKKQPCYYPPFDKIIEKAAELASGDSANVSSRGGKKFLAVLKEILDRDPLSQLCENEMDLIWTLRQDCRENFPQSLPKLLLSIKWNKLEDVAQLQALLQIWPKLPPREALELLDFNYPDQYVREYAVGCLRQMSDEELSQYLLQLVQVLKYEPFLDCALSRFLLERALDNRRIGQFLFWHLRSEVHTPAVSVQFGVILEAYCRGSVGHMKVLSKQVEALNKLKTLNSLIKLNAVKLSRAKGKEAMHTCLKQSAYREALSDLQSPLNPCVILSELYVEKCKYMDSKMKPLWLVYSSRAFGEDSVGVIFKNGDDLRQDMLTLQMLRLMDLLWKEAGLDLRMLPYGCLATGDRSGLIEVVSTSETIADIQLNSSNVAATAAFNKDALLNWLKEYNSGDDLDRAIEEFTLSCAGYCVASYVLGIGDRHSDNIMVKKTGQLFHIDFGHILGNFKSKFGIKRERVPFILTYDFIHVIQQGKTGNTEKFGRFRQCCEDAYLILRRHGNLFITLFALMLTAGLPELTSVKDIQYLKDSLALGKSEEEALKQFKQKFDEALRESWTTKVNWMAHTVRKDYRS

A word on the EC50: it is the concentration giving half of the maximal effect. The low end stands for greater potency, the high end for weaker potency. In the assay on Balb/c splenic B cells ('Less than 100 nM'), `C[C@H](Nc1ncnc2cccnc12)c1cc2ccc(F)c(Cl)c2c(=O)n1-c1ccccc1` [Compound I-16] showed an EC50 of less than 100 nM. Same read-out and setting: in the case of `C[C@H](Nc1ncnc2cccnc12)c1cc2cccc(Cl)c2c(=O)n1-c1cccc(F)c1` [Compound I-20] it was less than 100 nM. One may read the IC50 as the concentration that inhibits the measured activity by half. As to `C[C@H](Nc1ncnc2cccnc12)c1cc2cccc(Cl)c2c(=O)n1C1CC1` [Compound I-23], at PI3Kβ ('Less than 100 nM'), the IC50 is less than 100 nM. In the assay on Balb/c splenic B cells ('Less than 100 nM'), this compound registered an EC50 of less than 100 nM. In the assay on Balb/c splenic B cells ('Less than 100 nM'), `C[C@H](Nc1ncnc2cccnc12)c1cc2cccc(Cl)c2c(=O)n1CCN1CCCC1` [Compound I-33] gave an EC50 of less than 100 nM. For `C[C@H](Nc1nc(N)nc2cccnc12)c1cc2cccc(-c3cnn(C)c3)c2c(=O)n1C1CC1` [Compound I-40], the IC50 at PI3Kβ (setting [1]) lay in the range of 1000 to 10000 nM. The compound also had an EC50 in the assay on Balb/c splenic B cells ('Less than 100 nM') of less than 100 nM.

Take `Cc1ncc(-c2cccc3cc([C@H](C)Nc4ncnc5cccnc45)n(-c4ccccc4)c(=O)c23)cn1` [Compound I-41]: the IC50 at PI3Kβ (setting [1]) was more than 10000 nM. In addition, in the assay on Balb/c splenic B cells ('Less than 100 nM'), the EC50 was less than 100 nM. In the same order, the values of `COc1ncc(-c2cccc3cc([C@H](C)Nc4ncnc5cccnc45)n(-c4ccccc4)c(=O)c23)cn1` [Compound I-42] are more than 10000 nM and less than 100 nM. In the same order, the values of `COc1ncc(-c2cccc3cc([C@H](C)Nc4nc(N)nc5cccnc45)n(-c4ccccc4)c(=O)c23)cn1` [Compound I-57] are more than 10000 nM and less than 100 nM. In the same order, the values of `COc1cncc(-c2cccc3cc([C@H](C)Nc4nc(N)nc5cccnc45)n(-c4ccccc4)c(=O)c23)c1` [Compound I-58] are 1000 to 10000 nM and less than 100 nM. As for `Cc1ncc(-c2cccc3cc([C@H](C)Nc4nc(N)nc5cccnc45)n(-c4ccccc4)c(=O)c23)cn1` [Compound I-59], the IC50 on PI3Kβ (setting [1]) is more than 10000 nM. For the same compound, the EC50 in the assay on Balb/c splenic B cells ('Less than 100 nM') was less than 100 nM.

For the compound `C[C@H](Nc1ncnc2cccnc12)c1cc2cccc(-c3cnc(N)nc3)c2c(=O)n1-c1ccccc1` [Compound I-63], the IC50 at PI3Kβ (setting [1]) is 1000 to 10000 nM. Besides, the EC50 in the assay on Balb/c splenic B cells ('Less than 100 nM') is less than 100 nM. In the same order, the values of `Cc1cncc(-c2cccc3cc([C@H](C)Nc4nc(N)nc5cccnc45)n(-c4ccccc4)c(=O)c23)c1` [Compound I-75] are 1000 to 10000 nM and less than 100 nM. In the same order, the values of `Cc1cc(-c2cccc3cc([C@H](C)Nc4ncnc5cccnc45)n(-c4ccccc4)c(=O)c23)ccn1` [Compound I-76] are 1000 to 10000 nM and less than 100 nM. For `COc1ncc(-c2cccc3cc([C@H](C)Nc4nc(N)nc5cccnc45)n(-c4cccc(F)c4)c(=O)c23)cn1` [Compound I-78], in that order: more than 10000 nM and less than 100 nM. Turning to `Cc1cc(-c2cccc3cc([C@H](C)Nc4nc(N)nc5cccnc45)n(-c4ccccc4)c(=O)c23)ccn1` [Compound I-81], the IC50 on PI3Kβ (setting [1]) lay in the range of 1000 to 10000 nM. This compound also had an EC50 with Balb/c splenic B cells ('Less than 100 nM') of less than 100 nM. For `C[C@H](Nc1nc(N)nc2cccnc12)c1cc2cccc(-c3cnc4ccccc4c3)c2c(=O)n1-c1ccccc1` [Compound I-82], in that order: 1000 to 10000 nM and less than 100 nM. As for `C[C@H](Nc1nc(N)nc2cccnc12)c1cc2cccc(-c3cnc4[nH]ccc4c3)c2c(=O)n1-c1ccccc1` [Compound I-83], in the assay with Balb/c splenic B cells ('Less than 100 nM'), the EC50 is less than 100 nM. On to `Cc1cccc2cc([C@H](C)Nc3nc(N)nc4cccnc34)n(-c3cccc(F)c3)c(=O)c12` [Compound I-85], for which, at PI3Kβ (setting [1]), the 50% inhibitory concentration (IC50) lay within 1000 to 10000 nM. In the assay on Balb/c splenic B cells ('Less than 100 nM'), this compound registered an EC50 of less than 100 nM. In the same order, the values of `Cc1cc(-c2cccc3nc([C@H](C)Nc4nc(N)nc5cccnc45)n(-c4ccccc4)c(=O)c23)ccn1` [Compound I-88] are 1000 to 10000 nM and less than 100 nM. Turning to `CNc1nc(N[C@@H](C)c2cc3cccc(NC)c3c(=O)n2-c2ccccc2)c2ncccc2n1` [Compound I-95], the IC50 at PI3Kβ (setting [1]) is more than 10000 nM. This compound also registered an EC50 in the assay on Balb/c splenic B cells (1 μM to 100 nM) of 100 to 1000 nM. As for `CNc1nc(N[C@@H](C)c2cc3cccc(-c4cnc(OC)nc4)c3c(=O)n2-c2ccccc2)c2ncccc2n1` [Compound I-97], the IC50 at PI3Kβ (setting [1]) is more than 10000 nM. For the same compound, the EC50 in the assay with Balb/c splenic B cells ('Less than 100 nM') was less than 100 nM.

Consider `CNc1nc(N[C@@H](C)c2cc3cccc(-c4cnc(C)nc4)c3c(=O)n2-c2ccccc2)c2ncccc2n1` [Compound I-98], for which, at PI3Kβ (setting [1]), the 50% inhibitory concentration (IC50) is more than 10000 nM. This compound displayed an EC50 in the assay with Balb/c splenic B cells (1 μM to 100 nM) of 100 to 1000 nM.

For `CNc1cccc2cc([C@H](C)Nc3nc(N)nc4cccnc34)n(-c3ccccc3)c(=O)c12` [Compound I-101], the IC50 on PI3Kβ (setting [1]) is more than 10000 nM. The EC50 in the assay with Balb/c splenic B cells ('Less than 100 nM') was less than 100 nM. `C[C@H](Nc1ccnn2ccnc12)c1cc2cccc(Cl)c2c(=O)n1-c1ccccc1` [II-10]: the IC50 on PI3Kβ ('Less than 100 nM') was less than 100 nM. In the assay on Balb/c splenic B cells ('Less than 100 nM'), this compound yielded an EC50 of less than 100 nM. Turning to `C[C@H](Nc1ncnc2ccnn12)c1cc2cccc(Cl)c2c(=O)n1-c1cccc(F)c1` [II-30], the IC50 on PI3Kβ (setting [1]) fell in the range of 1000 to 10000 nM. In addition, the EC50 in the assay with Balb/c splenic B cells ('Less than 100 nM') was less than 100 nM. For `C[C@H](Nc1cc(N)nc2ccnn12)c1cc2cccc(Cl)c2c(=O)n1-c1ccccc1` [II-49], in that order: 1000 to 10000 nM and less than 100 nM. For the compound `COc1ncc(-c2cccc3cc([C@H](C)Nc4cc(N)nc5ccnn45)n(-c4ccccc4)c(=O)c23)cn1` [II-50], the IC50 on PI3Kβ (setting [1]) was more than 10000 nM. In the assay with Balb/c splenic B cells ('Less than 100 nM'), this compound gave a half-maximal effective concentration (EC50) of less than 100 nM. As to `C[C@H](Nc1ncnc2scnc12)c1cc2cccc(C(F)(F)F)c2c(=O)n1-c1ccccc1` [III-5], the IC50 on PI3Kβ ('Less than 100 nM') is less than 100 nM. Moreover, in the assay on Balb/c splenic B cells ('Less than 100 nM'), the EC50 was less than 100 nM. For the compound `C[C@H](Nc1ccnc2ccnn12)c1cc2cccc(C(F)(F)F)c2c(=O)n1-c1cccc(F)c1` [III-11], at PI3Kβ (setting [1]), the IC50 lay in the range of 1000 to 10000 nM. Moreover, the EC50 with Balb/c splenic B cells ('Less than 100 nM') was less than 100 nM. As for `C[C@H](Nc1nc(N)nc2[nH]cnc12)c1cc2cccc(C(F)(F)F)c2c(=O)n1-c1ccccc1` [III-17], the IC50 on PI3Kβ ('Less than 100 nM') was less than 100 nM. In the assay with Balb/c splenic B cells ('Less than 100 nM'), this compound came in with an EC50 of less than 100 nM. On to `C[C@H](Nc1ccnc2cccnc12)c1cc2cccc(C(F)(F)F)c2c(=O)n1-c1ccccc1` [III-31], for which the IC50 at PI3Kβ (setting [1]) was 1000 to 10000 nM. Moreover, the EC50 in the assay with Balb/c splenic B cells ('Less than 100 nM') was less than 100 nM. For the compound `C[C@H](Nc1ncnc(N)c1C#N)c1cc2cccc(C(F)(F)F)c2c(=O)n1-c1ccccc1` [III-42], the IC50 on PI3Kβ (setting [1]) is more than 10000 nM. Further, the EC50 with Balb/c splenic B cells ('Less than 100 nM') is less than 100 nM. Turning to `C[C@H](Nc1nc(N)ncc1C(F)(F)F)c1cc2cccc(C(F)(F)F)c2c(=O)n1-c1cccc(F)c1` [III-46], the IC50 on PI3Kβ (setting [1]) is 1000 to 10000 nM. The compound also came in with an EC50 with Balb/c splenic B cells (1 μM to 100 nM) of 100 to 1000 nM. `C[C@H](Nc1ncnc2[nH]nc(C#N)c12)c1cc2cccc(Cl)c2c(=O)n1-c1ccccc1` [IV-11]: on PI3Kβ (setting [1]), the IC50 lay within 1000 to 10000 nM. For the same compound, the EC50 in the assay on Balb/c splenic B cells ('Less than 100 nM') was less than 100 nM. In the same order, the values of `C[C@H](Nc1nc(N)nc2nccnc12)c1cc2cccc(Cl)c2c(=O)n1-c1ccccc1` [IV-22] are 1000 to 10000 nM and less than 100 nM. `C[C@H](Nc1cc(Cl)ncc1C#N)c1cc2cccc(Cl)c2c(=O)n1-c1ccccc1` [IV-23]: at PI3Kβ (setting [1]), the IC50 is more than 10000 nM. As for `C[C@H](Nc1cc(N)ncc1C(N)=O)c1cc2cccc(Cl)c2c(=O)n1-c1ccccc1` [IV-24], on PI3Kβ ('Less than 100 nM'), the IC50 is less than 100 nM.

In the case of `CCOC(=O)c1cnc(N[C@@H](C)c2cc3cccc(-c4ccnc(OC)c4)c3c(=O)n2-c2ccccc2)nc1N` [IV-25], at PI3Kβ (setting [1]), the 50% inhibitory concentration (IC50) was more than 10000 nM.

`C[C@@H](c1cc2cccc(Cl)c2c(=O)n1-c1ccccc1)n1c(=O)[nH]c2cnc(N)nc21` [IV-26]: the IC50 on PI3Kβ (setting [1]) was more than 10000 nM.

In the case of `C[C@H](Nc1nc(Cl)ns1)c1cc2cccc(Cl)c2c(=O)n1-c1ccccc1` [IV-27], the IC50 at PI3Kβ (setting [1]) is more than 10000 nM.

The record behind these values is US8969363B2, “Heterocyclic compounds and uses thereof” (Infinity Pharmaceuticals, Inc., priority 2011, dated 2015).
